{"source": "patent US20130123326A1", "about": "“ALLOSTERIC BINDING COMPOUNDS” (REGION MIDTJYLLAND, priority 2009, published 2013)", "key": {"Balb/cJ male mice": {"test_system": "Balb/cJ male mice", "assay": "Forced swim test (FST)", "format": "in vivo", "conditions": "intraperitoneally 30 min prior to FST, seven minutes scoring period", "procedure": "FIGS. 5A and 5B. Effect of allosteric compound in the mouse forced swim test (FST). Drugs were dissolved in 10% β-2-hydroxy-cyclodextrine. Male BalB/c were injected intraperitoneally with 500 μl SSRI alone or in combination with allosteric compound 30 min prior to FST (n=8). Vehicle treated animals each received 500 μl 10% 13-2-hydroxy-cyclodextrine. […] FIG. 5B depicts the effect of 5 mg/(kg bodyweight) of escitalopram alone and in combination with 15 mg/(kg bodyweight) of the allosteric compound of Example 1 (denoted ALN10 in figure). […]\nFST is a behavioral model widely used to assess antidepressant-like activity in mice Porsholt et al, 1978). […] The total duration of immobility within a seven minute test period, is the main parameter measured. […]\nMale BalB/c were injected intraperitoneally with 500 μl SSRI alone or in combination with allosteric compound 30 min prior to the swimming session (n=6). […] Swim sessions were videofilmed and analyzed by a blind scorer using stop watch, or by analyzing software (Ethovision, Noldus). The parameter measured was amount of time spent in a state of immobility, including small movements to keep balance and head over water. […]\nFIGS. 5A and 5B gives the results from the forced swim test for the compound of Example 1. […] The dose of SSRI was chosen to be the highest sub-active concentration determined. […]"}, "hSERT": {"molecular_target": "hSERT (Homo sapiens, UniProt P31645)", "sequence (P31645 whole entry)": "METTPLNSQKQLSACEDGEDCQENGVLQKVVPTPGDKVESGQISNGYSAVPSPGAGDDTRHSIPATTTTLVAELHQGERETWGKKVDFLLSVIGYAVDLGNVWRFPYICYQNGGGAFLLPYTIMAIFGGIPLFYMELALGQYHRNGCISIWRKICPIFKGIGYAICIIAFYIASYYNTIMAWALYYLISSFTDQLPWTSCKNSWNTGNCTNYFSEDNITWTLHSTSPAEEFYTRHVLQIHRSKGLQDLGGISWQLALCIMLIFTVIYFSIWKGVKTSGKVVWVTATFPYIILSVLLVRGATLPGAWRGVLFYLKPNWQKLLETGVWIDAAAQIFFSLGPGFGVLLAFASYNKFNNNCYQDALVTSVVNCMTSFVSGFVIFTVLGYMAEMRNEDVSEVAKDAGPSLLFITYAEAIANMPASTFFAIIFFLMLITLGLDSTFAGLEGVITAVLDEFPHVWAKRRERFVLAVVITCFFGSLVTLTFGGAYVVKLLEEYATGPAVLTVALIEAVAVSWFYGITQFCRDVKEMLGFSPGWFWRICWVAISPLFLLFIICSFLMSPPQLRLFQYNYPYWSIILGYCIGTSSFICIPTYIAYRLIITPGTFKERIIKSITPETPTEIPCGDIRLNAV", "assay": "Dissociation assay with [3H]-citalopram and hSERT membrane preparations", "format": "binding", "conditions": "for Max. Stability (maximum stabilization factor): estimated upper plateau of sigmoidal response curve: how many folds the off-rate of bound radioligand from SERT can be attenuated, N/A = No activity", "procedure": "Dulbecco's modified Eagle's medium, fetal bovine serum, trypsin, and penicillin/streptomycin were purchased from Invitrogen. Cell culture flasks were from NUNC. MicroScint-20 scintillation mixture was from Packard. [^3H]-Citalopram (85 Ci/mmol) was a gift from H. Lundbeck A/S (Valby, Denmark). Fugene-6 transfection reagent was from Roche Molecular Biochemicals. All chemicals are commercially available. Stock solutions of the allosteric ligands were prepared as 100 mM in EtOH.\nThe pcDNA3 plasmid vector containing the hSERT gene was used for transfection.\n17.5 μl Fugene-6 (Roche Molecular Biochemicals) were mixed with 280 μl Dulbecco's modified Eagle's medium, and incubated at room temperature for 5 minutes. 10 μg of hSERT plasmid were added and the mixture was further incubated at least 15 minutes. […] The cells were plated at 35% confluency in a 150 mm dish, and grown at 37° C. for 64 h. Prior to harvesting the dish was rinsed in PBS. Cells were harvested with a cell scraper in buffer 1 (50 mM Tris-base, 150 mM NaCl, 20 mM EDTA, pH 7.4). After centrifugation (3000 g at 4° C. for 10 mins), cells were suspended and homogenized with an IKA Ultra-Turrax from Rose Scientific Ltd (Edmonton, Alberta, Canada) for 20 s in buffer 1. Membranes were pelleted by ultracentrifugation (12 000 g at 4° C. for 15 min) and homogenization was repeated in buffer 1. Finally, after ultracentrifugation (12000 g, 4° C., 15 min) membranes were resuspended in 1 ml buffer 3 (50 mM Tris-base, 120 mM NaCl, 5 mM KCl, pH 7.4) and stored at −80° C.\nDissociation Assay with [^3H]-Citalopram and Membrane Preparations.\nSERT-[^3H]-citalopram complex was formed by incubating hSERT membrane preparation and radioligand in buffer 3 during a 60 min incubation at 4° C. Radioligand was present at a concentration 10 times the Kd value. The time kinetic of dissociation was followed by adding 10 μL complex solution to 250 μL buffer 3 in 96-well plates and incubating subsequently for increasing time intervals at RT. Reactions were terminated by filtration through GF/C glass-fibre filters (Unifilter, Perkin Elmer Life Sciences), preincubated with 40 μl 0.5% polyethyleneimine, using a Pachard Bell cell harvester, and subsequently washed three times with water. Filters were soaked in 40 μl Microscint 20 scintillation liquid (Pachard Bell). Bound radioactivity was determined by direct counting of plates using a Packard Bell microplate scintillation counter. Dissociation curves were obtained by plotting residual binding vs. time of dissociation.\nThe concentrations of allosteric compound in the dissociation buffer range from 400-0.2 μM.\nThe relative off-rate is expressed as the off-rate of the radioligand at a given concentration of allosteric compound, normalized to the off-rate of radioligand in the absence of allosteric compound.\nThe maximum stabilization factor is defined as the estimated upper plateau of the sigmoidal response curve, and describes how many folds the off-rate of bound radioligand from SERT can be attenuated in the presence of increasing concentrations of allosteric compound in the dissociation buffer."}, "[1]": {"conditions": "concentration of allosteric compound inducing 50% attenuation of the off-rate of the radioligand from SERT, 10 μM fluoxetine in dissociation buffer, read-out: EC50"}}, "note": "Read-outs that look alike come from different tables or passages of the source.", "data": [{"smiles": "CCOC(=O)c1cccc2ccccc12", "note": "[Example 1, 1-Naphthoic Acid Ethyl Ester]", "values": [{"measurement": "immobility time in FST, combination with escitalopram", "setting": "Balb/cJ male mice; 15 mg/kg allosteric compound + 5 mg/kg (subactive) escitalopram", "result": "significantly reduced immobility time"}, {"measurement": "immobility time in FST, combination with fluoxetine", "setting": "Balb/cJ male mice; 15 mg/kg allosteric compound + 5 mg/kg (subactive) fluoxetine", "result": "significantly reduced immobility time"}, {"measurement": "EC50", "setting": "hSERT; [1]", "result": 3.3, "unit": "µM"}, {"measurement": "Max. Stability (maximum stabilization factor)", "setting": "hSERT", "result": 9.1}]}, {"smiles": "COC(=O)c1cccc2ccccc12", "note": "[Example 2, 1-Naphthoic Acid Methyl Ester]", "values": [{"measurement": "EC50", "setting": "hSERT; [1]", "result": 29, "unit": "µM"}, {"measurement": "Max. Stability (maximum stabilization factor)", "setting": "hSERT", "result": 7.4}]}, {"smiles": "CCCOC(=O)c1cccc2ccccc12", "note": "[Example 3, 1-Naphthoic Acid Propyl Ester]", "values": [{"measurement": "EC50", "setting": "hSERT; [1]", "result": 2.1, "unit": "µM"}, {"measurement": "Max. Stability (maximum stabilization factor)", "setting": "hSERT", "result": 17}]}, {"smiles": "CC(C)OC(=O)c1cccc2ccccc12", "note": "[Example 4, 1-Naphthoic Acid Isopropyl Ester]", "values": [{"measurement": "EC50", "setting": "hSERT; [1]", "result": 9.8, "unit": "µM"}, {"measurement": "Max. Stability (maximum stabilization factor)", "setting": "hSERT", "result": 16}]}, {"smiles": "O=C(OCCO)c1cccc2ccccc12", "note": "[Example 6, 1-Naphthoic Acid 2-Hydroxyethyl Ester]", "values": [{"measurement": "EC50", "setting": "hSERT; [1]", "result": 14.5, "unit": "µM"}, {"measurement": "Max. Stability (maximum stabilization factor)", "setting": "hSERT", "result": 20}]}, {"smiles": "C=CCOC(=O)c1cccc2ccccc12", "note": "[Example 8, 1-Naphthoic Acid 2-Propenyl Ester]", "values": [{"measurement": "EC50", "setting": "hSERT; [1]", "result": 16, "unit": "µM"}, {"measurement": "Max. Stability (maximum stabilization factor)", "setting": "hSERT", "result": 11}]}, {"smiles": "C#CCOC(=O)c1cccc2ccccc12", "note": "[Example 9, 1-Naphthoic Acid 2-Propynyl Ester]", "values": [{"measurement": "EC50", "setting": "hSERT; [1]", "result": 15, "unit": "µM"}, {"measurement": "Max. Stability (maximum stabilization factor)", "setting": "hSERT", "result": 13}]}, {"smiles": "CCNC(=O)c1cccc2ccccc12", "note": "[Example 10, 1-Naphthoic Acid Ethylamide]", "values": [{"measurement": "EC50", "setting": "hSERT; [1]", "result": 74, "unit": "µM"}, {"measurement": "Max. Stability (maximum stabilization factor)", "setting": "hSERT", "result": 1.8}]}, {"smiles": "CCCSc1cccc2ccccc12", "note": "[Example 11, 1-Propyl-Sulfanyl-1-Naphthalene]", "values": [{"measurement": "EC50", "setting": "hSERT; [1]", "result": 4.7, "unit": "µM"}, {"measurement": "Max. Stability (maximum stabilization factor)", "setting": "hSERT", "result": 6.4}]}, {"smiles": "CSc1cccc2ccccc12", "note": "[Example 12, Methyl-[1]Naphthyl Sulphide]", "values": [{"measurement": "EC50", "setting": "hSERT; [1]", "result": 17, "unit": "µM"}, {"measurement": "Max. Stability (maximum stabilization factor)", "setting": "hSERT", "result": 10}]}, {"smiles": "CCSc1cccc2ccccc12", "note": "[Example 13, Ethyl-[1]Naphthyl Sulphide]", "values": [{"measurement": "EC50", "setting": "hSERT; [1]", "result": 9.4, "unit": "µM"}, {"measurement": "Max. Stability (maximum stabilization factor)", "setting": "hSERT", "result": 8.3}]}, {"smiles": "CCCCSc1cccc2ccccc12", "note": "[Example 14, 1-Butyl-Sulfanyl-1-Naphthalene]", "values": [{"measurement": "EC50", "setting": "hSERT; [1]", "result": 12, "unit": "µM"}, {"measurement": "Max. Stability (maximum stabilization factor)", "setting": "hSERT", "result": 3.6}]}, {"smiles": "OCCSc1cccc2ccccc12", "note": "[Example 15, 2-Hydroxyethyl-1-Naphthyl Sulphide]", "values": [{"measurement": "EC50", "setting": "hSERT; [1]", "result": 4.6, "unit": "µM"}, {"measurement": "Max. Stability (maximum stabilization factor)", "setting": "hSERT", "result": 10.2}]}, {"smiles": "C#CCSc1cccc2ccccc12", "note": "[Example 16, 3-Ethynyl-Sulfanyl-1-Naphthalene]", "values": [{"measurement": "EC50", "setting": "hSERT; [1]", "result": 1.2, "unit": "µM"}, {"measurement": "Max. Stability (maximum stabilization factor)", "setting": "hSERT", "result": 10.3}]}, {"smiles": "C=CCSc1cccc2ccccc12", "note": "[Example 17]", "values": [{"measurement": "EC50", "setting": "hSERT; [1]", "result": 3.2, "unit": "µM"}, {"measurement": "Max. Stability (maximum stabilization factor)", "setting": "hSERT", "result": 6.3}]}, {"smiles": "CCCOc1cccc2ccccc12", "note": "[Example 21, 1-Propoxy-Naphthalene]", "values": [{"measurement": "EC50", "setting": "hSERT; [1]", "result": 46, "unit": "µM"}, {"measurement": "Max. Stability (maximum stabilization factor)", "setting": "hSERT", "result": 3.9}]}, {"smiles": "CCOC(=O)n1ccc2ccccc21", "note": "[Example 24, Indole-1-Carboxylic Acid Ethyl Ester]", "values": [{"measurement": "EC50", "setting": "hSERT; [1]", "result": 1.3, "unit": "µM"}, {"measurement": "Max. Stability (maximum stabilization factor)", "setting": "hSERT", "result": 9}]}, {"smiles": "CCOC(=O)n1ccc2ccc(C)cc21", "note": "[Example 27, 6-Methyl-Indole-1-Carboxylic Acid Ethyl Ester]", "values": [{"measurement": "EC50", "setting": "hSERT; [1]", "result": 34, "unit": "µM"}, {"measurement": "Max. Stability (maximum stabilization factor)", "setting": "hSERT", "result": 15}]}, {"smiles": "CCOC(=O)n1ccc2ccc(Cl)cc21", "note": "[Example 28, 6-Chloro-Indole-1-Carboxylic Acid Ethyl Ester]", "values": [{"measurement": "EC50", "setting": "hSERT; [1]", "result": 31, "unit": "µM"}, {"measurement": "Max. Stability (maximum stabilization factor)", "setting": "hSERT", "result": 8.8}]}, {"smiles": "CCOC(=O)n1nnc2ccccc21", "note": "[Example 29, Benzotriazole-1-Carboxylic Acid Ethyl Ester]", "values": [{"measurement": "EC50", "setting": "hSERT; [1]", "result": 61, "unit": "µM"}, {"measurement": "Max. Stability (maximum stabilization factor)", "setting": "hSERT", "result": 5.4}]}, {"smiles": "O=C(OC1CCCC1)c1cccc2ccccc12", "note": "[Example 32, 1-Naphthoic Acid Cyclopentyl Ester]", "values": [{"measurement": "EC50", "setting": "hSERT; [1]", "result": 9.6, "unit": "µM"}, {"measurement": "Max. Stability (maximum stabilization factor)", "setting": "hSERT", "result": 10}]}, {"smiles": "CCOC(=O)n1cc(C)c2ccccc21", "note": "[Example 35, 3-Methyl-Indole-1-Carboxylic Acid Ethyl Ester]", "values": [{"measurement": "EC50", "setting": "hSERT; [1]", "result": 5, "unit": "µM"}, {"measurement": "Max. Stability (maximum stabilization factor)", "setting": "hSERT", "result": 6}]}, {"smiles": "Sc1cccc2ccccc12", "note": "[reference compound]", "values": [{"measurement": "EC50", "setting": "hSERT; [1]", "result": "> 1000", "unit": "µM"}]}, {"smiles": "CCOS(=O)(=O)c1cccc2ccccc12", "note": "[reference compound]", "values": [{"measurement": "EC50", "setting": "hSERT", "result": 120, "unit": "µM"}, {"measurement": "Max. Stability (maximum stabilization factor)", "setting": "hSERT", "result": 3.1}]}]}
